Patent publication US20230255943A1, “MMP-9 AND MMP-12 INHIBITION FOR TREATING SPINAL CORD INJURY OR RELATED INJURY TO NEUROLOGICAL TISSUE” (The University of Birmingham, priority 2020, published 2023)

Assays:
[1] = system: mice with DC crush injury; assay: NF200+ spared fibres above and below the lesion; assay type: in vivo, mouse; settings: oral
[2] = system: mice with DC crush injury; assay: Tape removal test (sensory function) after DC injury in mice; assay type: in vivo, mouse
Experimental: Functional testing after DC lesion and treatment was carried out as described previously (N. D. Fagoe, C. L. Attwell, R. Eggers, L. Tuinenbreijer, D. Kouwenhoven, J. Verhaagen, M. R. Mason, Evaluation of Five Tests for Sensitivity to Functional Deficits following Cervical or Thoracic Dorsal Column Transection in the Rat. PLoS One 11, e0150141 (2016)).
Briefly, animals (n=18/group) were first trained to master traversing a horizontal ladder for 1 w before functional testing. Baseline parameters were established by performing tests at 2-3d before injury. Animals were then tested at 2d, 1 w, 2 w, 3 w, 4 w, 5 w and 6 w after DC injury+treatment. Experiments were performed by an observer masked to the treatment conditions in the same order and time of day with each test performed for 3 individual trials.
Tape removal test (sensory function): The tape removal test determines touch perception from the left hind paw. After holding animals with both hind-paws extended, the time it took for the animal to detect and remove a piece of tape of 15×15 mm (Kip Hochkrepp, Bocholt, Germany) affixed to the palm of the left hind-paw was recorded and used to calculate the mean sensing time.

MMP-12 = biological target: T1, MMP-12 (Mus musculus, UniProt P34960); assay: MMP-12 enzyme activity after SCI in mice (SensoLyte 520 fluorimetric assay); assay type: in vivo; settings: for suppression of MMP-12 activity in CSF / suppression of MMP-12 activity in serum / suppression of MMP-12 activity in spinal cord tissues: DC injury; for suppression of MMP-12 activity in spinal cord tissues: lowest most effective dose
T1 construct: from tissue; host or cells: mouse spinal cord lesion site homogenate, serum and CSF
T1 sequence (P34960 110-473): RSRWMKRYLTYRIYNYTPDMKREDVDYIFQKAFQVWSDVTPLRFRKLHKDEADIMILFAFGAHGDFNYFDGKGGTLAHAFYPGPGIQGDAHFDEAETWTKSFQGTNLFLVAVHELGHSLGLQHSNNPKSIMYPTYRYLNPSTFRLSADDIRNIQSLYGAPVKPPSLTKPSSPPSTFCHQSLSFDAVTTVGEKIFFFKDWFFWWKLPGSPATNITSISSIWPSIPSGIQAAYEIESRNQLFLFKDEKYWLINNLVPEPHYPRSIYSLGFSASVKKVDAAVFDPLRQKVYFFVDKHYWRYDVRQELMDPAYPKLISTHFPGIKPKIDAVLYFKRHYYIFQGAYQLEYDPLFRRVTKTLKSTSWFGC
Experimental: For oral delivery of AZD1236, n=6 adult male C57BL6 mice/group (Charles River, Margate, UK) were randomly allocated to either: (1), Sham (control; partial laminectomy but no DC crush injury); (2), DC crush injury+vehicle (partial laminectomy followed by DC crush injury and injection of vehicle); (3), DC crush injury+100 mg/kg AZD1236; (4), DC crush injury+200 mg/kg AZD1236; and (5), DC crush injury+300 mg/kg AZD1236. For intrathecal (it) delivery of AZD1236, adult male C57BL6 mice (25-30 g) (Charles River, Margate, UK) were randomly allocated to either: (1), Sham (control; partial laminectomy but no DC crush injury); (2), DC crush injury+vehicle (partial laminectomy followed by DC crush injury and injection of vehicle); (3), DC crush injury+2.5 mg/kg AZD1236; (4), DC crush injury+5 mg/kg AZD1236; and (5), DC crush injury+10 mg/kg AZD1236. For intrathecal delivery an indwelling atlanto-occipital intrathecal catheter was inserted into the intrathecal space, as described previously (F. A. Oladosu, B. P. Ciszek, S. C. O'Buckley, A. G. Nackley, Novel intrathecal and subcutaneous catheter delivery systems in the mouse. J Neurosci Methods 264, 119-128 (2016)). Briefly, with mice in the sternal recumbency a small incision was made at the nape of the neck followed by detachment of the muscles on either side of the external occipital crest to expose the A-O membrane. The membrane was incised and a 6 cm Alzet mouse intrathecal catheter (Alzet, Cupertino, Calif., USA) and polyurethane segments were gently guided 2.5 cm into the intrathecal space. The catheter was secured using 4-0 silk sutures (Oasis Medical, IL) and the exposed end of the catheter was sealed off with a stainless-steel plug and affixed to the upper back. Animals were injected immediately with vehicle or AZD1236 followed by a 10 μl PBS catheter flush. Injections were repeated every twice daily for the first 3 days after injury and drugs and vehicle reagents were delivered over 1 min time period using a Hamilton microlitre syringe (Hamilton Co, USA). Where specified intact animals with no surgical procedures were also used. All lesions were administered under 5% isofluorane induced inhalation anaesthesia, with 1.51/min O2. Pre- and post-injury analgesia was also provided.
DC crush injury was administered bilaterally at the T8 vertebral level as described previously (S. Surey, M. Berry, A. Logan, R. Bicknell, Z. Ahmed, Differential cavitation, angiogenesis and wound-healing responses in injured mouse and rat spinal cords. Neuroscience 275, 62-80 (2014); M. L. Read, S. Mir, R. Spice, R. J. Seabright, E. L. Suggate, Z. Ahmed, M. Berry, A. Logan, Profiling RNA interference (RNAi)-mediated toxicity in neural cultures for effective short interfering RNA design. J Gene Med 11, 523-534 (2009)). Briefly, calibrated watchmaker's forceps were separated by 0.5 mm and inserted through the dorsal cord meninges to a depth of 0.45 mm in mice and separated by 1 mm and inserted through the dorsal cord meninges to a depth of 1.0 mm in rats, and the DC were crushed for 3 seconds. AZD1236 or vehicle was administered twice daily by oral gavage or intrathecally, either immediately for the first 3 days or 24 hours after injury and treating twice daily until day 4 (i.e. 3 days of AZD1236 dosing). All experiments were performed with n=6 mice/group and repeated on at least 2-3 independent occasions (total=12-18 animals/group/test).
CC SCI was administered at the T7-T8 vertebral level after exposure of T6-T9 by laminectomy. […]

[3] = system: mice with DC crush injury; assay: CSF biomarkers of SCI (S100β, NSE, GFAP, pNF-H, NF-L); assay type: in vivo, mouse; settings: 3 d after injury
[4] = optimal doses, 24 h delay vs immediate

C[C@]1(CS(=O)(=O)N2CC=C(C#Cc3cnc(C4CC4)nc3)CC2)NC(=O)NC1=O [AZD1236]
NF200+ spared fibres above (T9) and below (T7) the lesion site [1]: significantly preserved axon fibres
sensory function, 24-h delayed treatment [2, 4]: equally as effective as immediate delivery
improvement in sensory function ([2]; oral): 85%
mean tape sensing and removal time ([2]; oral, by 3 weeks): indistinguishable from sham-treated groups
suppression of MMP-12 activity in CSF (MMP-12; intrathecal delivery): 90±1%
suppression of MMP-12 activity in serum (MMP-12; intrathecal delivery): 71±1%
suppression of MMP-12 activity in spinal cord tissues (MMP-12; intrathecal): 86±4%
suppression of MMP-12 activity in CSF (MMP-12; oral delivery, 200 mg/kg): 69±3%
suppression of MMP-12 activity in serum (MMP-12; oral delivery, 200 mg/kg): 90±3%
suppression of MMP-12 activity in spinal cord tissues (MMP-12; oral): 85±3%
time for MMP-12 activity to return to DC+Vehicle injury levels after withdrawal (MMP-12; injury site, oral dosing withdrawn after 3 d): 5 days
MMP-12 activity, 24-h delayed treatment (MMP-12; [4]): equally as effective as immediate delivery
levels of S100β, NSE, GFAP, pNF-H and NF-L in CSF [3]: significantly attenuated all of these biomarkers to near sham-control levels
